Assay results published in patent US11639345B2, “Methionine metabolic pathway inhibitors” (MIGAL—GALILEE RESEARCH INSTITUTE LTD., priority 2018, dated 2023).

Columns and labels:
[1] = molecular target: T1, CGS from Nicotiana tabacum (Nicotiana tabacum, UniProt Q9ZPL5); settings: Steegborn et al. (2001); cited from earlier work
T1 sequence (Q9ZPL5 96-540 limits assumed): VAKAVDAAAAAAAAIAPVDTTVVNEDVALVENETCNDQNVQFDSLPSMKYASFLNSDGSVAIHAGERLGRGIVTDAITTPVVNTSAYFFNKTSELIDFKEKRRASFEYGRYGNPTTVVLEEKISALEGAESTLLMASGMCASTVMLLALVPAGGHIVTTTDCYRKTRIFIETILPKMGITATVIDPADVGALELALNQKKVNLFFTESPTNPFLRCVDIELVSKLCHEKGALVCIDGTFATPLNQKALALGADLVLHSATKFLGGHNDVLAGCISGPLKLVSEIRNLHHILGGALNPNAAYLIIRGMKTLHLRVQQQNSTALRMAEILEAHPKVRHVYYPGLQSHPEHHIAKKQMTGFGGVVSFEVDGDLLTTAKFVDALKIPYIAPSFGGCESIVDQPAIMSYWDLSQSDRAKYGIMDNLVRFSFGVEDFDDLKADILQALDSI

Arabidopsis thaliana = Arabidopsis thaliana root growth inhibition; assay type: in vivo; settings: 168 h, root length ratio vs DMSO control, 50 μM compound, lower values indicate shorter root, larger effect, read-out: Arabidopsis (relative to DMSO)
Description: Finally, FIGS. 7a-7o are the photos of the Arabidopsis thaliana plants and the inhibition of their roots growth by the compounds of the present invention. These experiments were conducted as follows. Seeds were washed with 70% ethanol for one minute and then with sterile water. Sterilisation was performed with 50% bleaching solution (3%) and 0.2% Triton x-100 for ten minutes followed by a five-time wash with sterile water. The seeds were placed in six well-plates with half Murashige and Skoog medium (MS; Duchefa, Haarlem, Netherlands), containing 1% sucrose (w/v), pH 5.8. The plates with Arabidopsis thaliana seeds were placed at 4° C. for two days and then transferred for seven days to growth chamber (22±2° C.) at day/light cycles of 16/8 h. The plates were placed vertically. In each plate, a control including 0.1% DMSO in the medium was added. The compounds of the present invention were tested for their herbicidal efficiency by diluting 1000 times a 50 mM stock in DMSO leading to a final concentration of 50 μM with 0.1% DMSO.
In Tables 1, 2 and 4 above, Arabidopsis root length was measured after addition of 50-μM compound compared with the negative control (DMSO) treatment. Length values indicate the ratio between non-treated plates ([…]) and the length after the addition of 50 uM of each compound. Lower values indicate shorter root length, and consequently, larger effect.

Tobacco CGS [2] = molecular target: T2, Tobacco CGS (Nicotiana tabacum, UniProt Q9ZPL5); assay: Malachite Green Phosphate assay of direct CGS activity; assay type: biochemical; design: 6xHIS (cleaved yes); GB1 solubility tag (cleaved yes); made in house; host or cells: E. coli BL-21; settings: 2 h; 50 μM compound, 1 μM CGS, two-hour incubation at 25° C.; read-out: Malachite Green Phosphate Assay (% to DMSO, 50 μM)
T2 sequence (Q9ZPL5 79-540): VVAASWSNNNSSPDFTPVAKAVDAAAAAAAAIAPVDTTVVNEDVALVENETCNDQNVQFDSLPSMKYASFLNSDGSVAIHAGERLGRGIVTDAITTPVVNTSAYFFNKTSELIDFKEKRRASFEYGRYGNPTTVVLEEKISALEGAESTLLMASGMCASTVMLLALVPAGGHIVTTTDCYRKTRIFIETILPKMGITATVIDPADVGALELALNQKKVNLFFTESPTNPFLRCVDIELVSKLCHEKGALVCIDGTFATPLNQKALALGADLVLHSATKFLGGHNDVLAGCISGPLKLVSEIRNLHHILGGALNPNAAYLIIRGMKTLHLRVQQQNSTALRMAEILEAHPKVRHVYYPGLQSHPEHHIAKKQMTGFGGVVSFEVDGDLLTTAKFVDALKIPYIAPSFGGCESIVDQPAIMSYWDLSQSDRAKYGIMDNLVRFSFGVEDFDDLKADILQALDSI
Description: As discussed above, the first reaction in methionine biosynthesis in plants is catalyzed by the CGS enzyme. In this reaction, the formation of cystathionine is conducted by the γ-replacement of the phosphoryl substituent of O-phospho-homoserine by cysteine and consecutive release of an orthophosphate group.
Expression of recombinant CGS was done by transforming the pET-11 vector containing the DNA sequence of Tobacco CGS with a 6xHIS tag and GB1 solubility tag followed by TEV cleavage site into BL-21 cells. These cells were cultured at 37° C. and optical density (OD)=0.8 protein at 600 nm, and the expression was induced by addition of 1 mM IPTG for 16 hours at 25° C. The protein was purified to homogeneity onto nickel column and cleaved by o/n dialysis with the TEV protease. A second nickel column was used to separate the cleaved CGS from the TEV and GB1 solubility tag.
The direct activity of CGS was tested using the Malachite Green Phosphate Assay Kit (Sigma-Aldrich, cat # MAK307-1KT). It is a highly sensitive and robust experiment used to measure the release of free orthophosphate group based on quantification of the green-coloured complex formed between Malachite Green, molybdate, and free orthophosphate. The rapid colour formation from the reaction can be conveniently measured on a spectrophotometer via the absorbance at 620 nm.
The assay mixture (100 μl) contained 50 mM MOPS—NaOH (pH 7.5), 150 mM NaCl, 0.1 mM PLP and 1 μM purified CGS. The compounds of the present invention were added at a final concentration of 50 μM and reactions were initiated by adding 2 mM cysteine and 3 mM O-phospho-L-homo-serine. After two-hour incubation at 25° C., 80 μL of each sample were transferred into a new 96 well-plate containing 20 μl of Malachite Green Reagent and incubated for additional 30 min at 25° C. Colour development was measured by a plate reader Tecan M200 (620 nm).

Tobacco CGS [3] = molecular target: T2, Tobacco CGS; assay: Micro Scale Thermophoresis (MST) direct binding to CGS; design: 6xHIS (N, cleaved yes); GB1 solubility tag (N, cleaved yes); made in house; host or cells: E. coli BL21; settings: score 0-5; binding to labelled Tobacco CGS
Description: The direct binding of the compounds of the embodiments to the CGS was tested by Micro Scale Thermophoresis (MST). In the MST assay, the CGS protein was labelled with a fluorophore, the samples were heated, and changes in fluorescence were measured as a function of the ligand concentration. In the MST assay, similar to the expression and purification described above, the recombinant Tobacco CGS protein was expressed in E. coli BL21 cells and purified to homogeneity. For that particular purpose, the pET-11 vector containing the DNA sequence of Tobacco CGS with an N-terminus […] tag followed by a TEV-cleavable GB1 solubility tag was cloned and transformed into the bacteria cells. Cells were cultured to OD=0.8, and protein expression was induced by the addition of 1 mM IPTG. The cells were cultured for additional 16 hours temperature 25° C. Following cellular lysis, the soluble fraction was passed through the nickel column and the bound HIS-tagged protein was eluted by 300 mM imidazole. Then, the tags […] and GB1 were cleaved in dialysis o/n and the mixtures passed again through the nickel column to separate the CGS from the TEV and HIS-GB1 constructs. As a final step the CGS was run on S75 size exclusion chromatography. Thus, the MST assay was performed to measure the biding of the compounds to the CGS protein. For this purpose, the CGS was labelled with commercially available amine reactive fluorophore (Cat # MO-[…], NanoTemper) according to the manufacture instructions. The MST binding curves were then measured using the Monolith NT.115 apparatus by incubating the labelled protein with the indicated compounds in a dose-response manner.

Roquette = Roquette assay spray; assay type: in vivo
[4] = tested on: E. coli lacking the endogenic MetB CGS gene, transformed to express the CGS from Arabidopsis; assay: Growth of engineered E. coli expressing Arabidopsis CGS in M9 minimal media, with and without methionine; assay type: cell-based; settings: for E. coli Assay LE395 (0-5): score 0-5, growth of E. coli with Arabidopsis CGS gene in M9 minimal media; for E. coli specificity (MOA): score, growth with vs without external methionine (40 mg/L)
Description: In addition to the direct binding evaluation, specific assay to test the compounds activity and specificity were also developed. In this assay, E. coli cells, lacking the endogenic MetB CGS gene and transformed to express the CGS from Arabidopsis, were used. These cells were grown on M9 minimal media with and without external methionine supplemented to the cells, in the presence of the compounds of the embodiments. These selected compounds of the embodiments, capable of inhibiting the cell growth on M9, but incapable of affecting the cell growth when supplemented with methionine, were validated as methionine-pathway specific inhibitors.
In this assay, Methionine auxotroph E. coli mutant was transformed with PQE-30 vector containing the Arabidopsis CGS gene as previously described in Yael Hacham et al., Plant Physiol., February 2002, 128(2): 454-462. In order to test the effect of the small molecule inhibitors on the CGS and methionine pathway, growth curves of the E. coli in M9 minimal media with […] were measured with and without the addition of external methionine (40 mg/L) in the presence of variable compound concentrations. E. coli growth curves were measured by following the optical density at 600 nm of bacteria in 96 well-plate placed within Tecan M200 plate reader in orbital shaking mode at 37° C. The slope of each curve was estimated using the ‘linest’ function in Excel.

In the case of O=C(O)CSc1nc(-c2cccc(Cl)c2)no1 [5-carboxymethylthio-3-(3′-chlorophenyl)-1,2,4-oxadiazol], the “affinity to the CGS” value [1] is listed as “highest affinity to the CGS reported so far”.

In the case of Cc1cc(O)nc(C(=O)Nc2cccc(-c3nc(C)cc(O)n3)c2)c1 [IML-64], the activity at 50 µM (Arabidopsis thaliana) is reported as 20%, the remaining activity at 50 µM (Tobacco CGS [2]) is reported as 15.2% and the “MST Tobacco (0-5)” value (Tobacco CGS [3]) is reported as 4. The “Roquette assay spray (single average)” value (Roquette) was 1.0, the “Roquette assay spray (twice average)” value (Roquette) was 2.0 and the “TEV (relative to DMSO)” value (TEV (relative to DMSO)) was 0.65. The “E. coli Assay LE395 (0-5)” value [4] was 2 and the “E. coli specificity (MOA)” value [4] was 4.

In the case of COc1cccc(C(=O)Nc2cccc(-c3cn(Cc4ccccc4)nn3)c2)c1 [IML-69], the activity at 50 µM (Arabidopsis thaliana) is reported as 22%, the remaining activity at 50 µM (Tobacco CGS [2]) is reported as 30% and the “MST Tobacco (0-5)” value (Tobacco CGS [3]) is reported as 5. The “Roquette assay spray (single average)” value (Roquette) was 1.0, the “Roquette assay spray (twice average)” value (Roquette) was 2.0 and the “TEV (relative to DMSO)” value (TEV (relative to DMSO)) was 0.71.

With CCc1nc(-c2cccc(NC(=O)c3cccc(OC)c3)c2)no1 [IML-215] the activity at 50 µM (Arabidopsis thaliana) was 6%, the remaining activity at 50 µM (Tobacco CGS [2]) was 12.8% and the “MST Tobacco (0-5)” value (Tobacco CGS [3]) was 2. The “Roquette assay spray (single average)” value (Roquette) was 1.0, the “Roquette assay spray (twice average)” value (Roquette) was 2.0 and the “TEV (relative to DMSO)” value (TEV (relative to DMSO)) was 0.39. The “E. coli Assay LE395 (0-5)” value [4] was 3 and the “E. coli specificity (MOA)” value [4] was 3.

For CCc1noc(-c2cccc(NC(=O)c3cccc(OC)c3)c2)n1 [IML-216], the activity at 50 µM (Arabidopsis thaliana) was 20%, the “MST Tobacco (0-5)” value (Tobacco CGS [3]) was 2 and the “Roquette assay spray (single average)” value (Roquette) was 2.0. The “Roquette assay spray (twice average)” value (Roquette) was 2.0, the “TEV (relative to DMSO)” value (TEV (relative to DMSO)) was 0.57 and the “E. coli Assay LE395 (0-5)” value [4] was 3. The “E. coli specificity (MOA)” value [4] was 5.

For O=C(Nc1cccc(-c2csc(Nc3ccc(C(=O)O)c(O)c3)n2)c1)c1ccccc1 [IML-219], the remaining activity at 50 µM (Tobacco CGS [2]) was 28.3%, the “MST Tobacco (0-5)” value (Tobacco CGS [3]) was 4 and the “E. coli Assay LE395 (0-5)” value [4] was 1. For the same compound, the “E. coli specificity (MOA)” value [4] was 5.

In the case of COc1ccc(Cc2nc(-c3cccc(NC(=O)c4cccc(F)c4)c3)no2)cc1 [IML-220], the remaining activity at 50 µM (Tobacco CGS [2]) is reported as 10.8%, the “E. coli Assay LE395 (0-5)” value [4] is reported as 3 and the “E. coli specificity (MOA)” value [4] is reported as 5.

Compound CCc1nc(-c2cc(CC(=O)O)cc(NC(=O)c3cccc(OC)c3)c2)no1 [IML-228] has a remaining activity at 50 µM (Tobacco CGS [2]) of 27.4%.

With CCc1nc(-c2cncc(NC(=O)c3cccc(OC)c3)c2)no1 [IML-229] the activity at 50 µM (Arabidopsis thaliana) was 10%, the remaining activity at 50 µM (Tobacco CGS [2]) was 19.6% and the “TEV (relative to DMSO)” value (TEV (relative to DMSO)) was 0.44.

In the case of CCn1cc(-c2cccc(NC(=O)c3cccc(OC)c3)c2)nn1 [IML-230], the activity at 50 µM (Arabidopsis thaliana) is reported as 29%, the remaining activity at 50 µM (Tobacco CGS [2]) is reported as 21.7% and the “Roquette assay spray (twice average)” value (Roquette) is reported as 1.0.

In the case of Cc1cc(O)nc(-c2cccc(NC(=O)c3c(O)cccc3F)c2)n1 [IMS-220], the remaining activity at 50 µM (Tobacco CGS [2]) is reported as 15.9%, the “MST Tobacco (0-5)” value (Tobacco CGS [3]) is reported as 3 and the “E. coli Assay LE395 (0-5)” value [4] is reported as 4. For the same compound, the “E. coli specificity (MOA)” value [4] was 5.
